From ChEMBL document CHEMBL1201862, “PubChem BioAssay data set” (2004)
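Cultured in 96-well plates, cells were exposed to test compound for 48 hours across five concentrations. GI50 marks 50% less growth.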 Activity calls are given as the source filed them. No stated cut-off is given here; in the data, active = GI50 up to about 1.1 µM and inactive = higher.

Experiments:
Test in all cases: NCI tumour cell line growth inhibition, 48 h
DMS-273 = system: DMS-273
EKVX = system: EKVX
HCC 2998 = system: HCC 2998
HL-60 = system: HL-60
RPMI-8226 = system: RPMI-8226
RXF 393 = system: RXF 393
SF-268 = system: SF-268
SK-MEL-2 = system: SK-MEL-2
SNB-78 = system: SNB-78
SR = system: SR
UACC-257 = system: UACC-257
BT-549 = system: BT-549
MCF7 = system: MCF7
MDA-MB-231 = system: MDA-MB-231
MDA-MB-435 = system: MDA-MB-435
PC-3 = system: PC-3
SK-OV-3 = system: SK-OV-3
A498 = system: A498
Hs-578T = system: Hs-578T
Malme-3M = system: Malme-3M

Measured: GI50

CCCc1[nH]c(SCCCCCCCCSc2nc(-c3ccc(F)cc3)c(CCC)[nH]2)nc1-c1ccc(F)cc1
inactive: DMS-273 44.3 µM | EKVX 4.89 µM | HCC 2998 > 100 µM | HL-60 6.5 µM | RPMI-8226 1.98 µM | RXF 393 27.4 µM | SF-268 3.33 µM | SK-MEL-2 24.2 µM | SNB-78 26.2 µM | SR 7.08 µM | UACC-257 12.2 µM

CC/C=C(\C(=C/CC)[N+](=O)[O-])[N+](=O)[O-]
inactive: BT-549 18.1 µM | EKVX 15.6 µM | HCC 2998 19.4 µM | MCF7 16.7 µM | MDA-MB-231 21 µM | MDA-MB-435 16.8 µM | PC-3 33.1 µM | RPMI-8226 24.1 µM | RXF 393 14.9 µM | SK-MEL-2 47.5 µM | SK-OV-3 > 100 µM | UACC-257 17.1 µM

CCCCCCOP(=O)(OCCCCCC)C(NC(=O)OCC)(C(F)(F)F)C(F)(F)F
inactive: A498 > 100 µM | BT-549 22.5 µM | EKVX 64.6 µM | HCC 2998 > 10 µM | HL-60 > 100 µM | Hs-578T 51.5 µM | MCF7 37.2 µM | MDA-MB-231 24.3 µM | MDA-MB-435 36.6 µM | Malme-3M 34.4 µM | PC-3 33.3 µM | RPMI-8226 > 100 µM | RXF 393 11.7 µM | SF-268 40.6 µM | SK-MEL-2 22.9 µM | SK-OV-3 29 µM | SR 50.8 µM

COc1ccc(CCn2ccc(C)n2)c(OC)c1
inactive: BT-549 > 100 µM | EKVX 47.2 µM | Hs-578T > 100 µM | MCF7 > 100 µM | MDA-MB-231 > 100 µM | MDA-MB-435 > 100 µM | Malme-3M > 100 µM | PC-3 > 100 µM | RXF 393 > 100 µM | SF-268 > 100 µM | SK-OV-3 > 100 µM | UACC-257 > 100 µM

CSCCC(NC(=O)OCc1ccccc1)NC(=O)OCc1ccccc1
inactive: HCC 2998 > 100 µM | HL-60 > 10 µM | Hs-578T > 100 µM | MDA-MB-231 > 100 µM | MDA-MB-435 > 100 µM | PC-3 > 100 µM | RPMI-8226 > 100 µM | SK-MEL-2 > 100 µM | SK-OV-3 > 100 µM | SR > 100 µM | UACC-257 > 100 µM

COc1cc(C=O)cc(/C=N/c2ccc(S(N)(=O)=O)cc2)c1O
inactive: A498 23.8 µM | BT-549 6.73 µM | EKVX 56.2 µM | HCC 2998 19.3 µM | HL-60 25.4 µM | Hs-578T 2.82 µM | MCF7 > 100 µM | MDA-MB-231 20.4 µM | MDA-MB-435 9.2 µM | Malme-3M 2.88 µM | PC-3 2.96 µM | RPMI-8226 7.13 µM | RXF 393 3.99 µM | SF-268 4.13 µM | SK-MEL-2 4.47 µM | SK-OV-3 2.9 µM | SR 6.11 µM | UACC-257 6.92 µM
